# In publication PMC12775434, “Ultra-large virtual screening unveils potent agonists of the neuromodulatory orphan receptor GPR139” (Nature Communications, 2025):
# Several values for one entry are separate records, joined by “and”; a condition that tells them apart may be missing. Identical values can stand only once. Like-named read-outs stand apart in the source and are kept apart here.
# How the values were obtained:
# Type in all cases: cell-based
# [1] = target: T1, GPR139 (Homo sapiens, UniProt Q6DWJ6); assay: Ca2+ mobilization assay, agonist mode, stable GPR139-CHOk1 cell line; conditions: for Emax: normalized to Lundbeck Cmp 1a, read-out: Emax (%) Ca2+
# T1 sequence (Q6DWJ6 1-353): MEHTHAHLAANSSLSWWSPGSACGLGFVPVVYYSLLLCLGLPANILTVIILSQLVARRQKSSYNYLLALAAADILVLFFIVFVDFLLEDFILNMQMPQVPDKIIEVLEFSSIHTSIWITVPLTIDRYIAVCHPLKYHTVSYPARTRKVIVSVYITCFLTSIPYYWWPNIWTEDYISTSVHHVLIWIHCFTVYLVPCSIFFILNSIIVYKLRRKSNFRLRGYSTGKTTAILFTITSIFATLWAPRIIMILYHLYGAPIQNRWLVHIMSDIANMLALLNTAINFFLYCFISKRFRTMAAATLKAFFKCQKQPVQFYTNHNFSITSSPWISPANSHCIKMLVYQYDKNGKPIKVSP
# Outline: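 Agonist activity of compounds is assessed in stably transfected CHO-K1 cells using the calcium dye Fluo-4 at 37 °C in HEPES-buffered HBSS (pH 7.4). Efficacy is expressed relative to the reference agonist Lundbeck Cmp 1a, set as 100%.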
# [2] = target: T1, GPR139; assay: Ca2+ mobilization assay, antagonist mode (EC80 800 nM Lundbeck Cmp 1a after 20 min preincubation), GPR139-CHOk1
# Outline: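 Antagonist mode: 800 nM (EC80) reference agonist Lundbeck Cmp 1a added following 20 min pre-incubation with 10 µM compound. GPR139-CHOk1 cells, Fluo-4 dye, probenecid-containing HEPES buffer pH 7.4; intracellular Ca2+ measured at 37 °C (ex 485, em 525 nm).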
# [3] = target: T2, human muscarinic acetylcholine M1 receptor (M1R) (Homo sapiens, UniProt P11229); assay: Ca2+ mobilization counter-screen in M1R-CHOk1 cells;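 further: 10 µM test compound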
# T2 sequence (P11229 1-460): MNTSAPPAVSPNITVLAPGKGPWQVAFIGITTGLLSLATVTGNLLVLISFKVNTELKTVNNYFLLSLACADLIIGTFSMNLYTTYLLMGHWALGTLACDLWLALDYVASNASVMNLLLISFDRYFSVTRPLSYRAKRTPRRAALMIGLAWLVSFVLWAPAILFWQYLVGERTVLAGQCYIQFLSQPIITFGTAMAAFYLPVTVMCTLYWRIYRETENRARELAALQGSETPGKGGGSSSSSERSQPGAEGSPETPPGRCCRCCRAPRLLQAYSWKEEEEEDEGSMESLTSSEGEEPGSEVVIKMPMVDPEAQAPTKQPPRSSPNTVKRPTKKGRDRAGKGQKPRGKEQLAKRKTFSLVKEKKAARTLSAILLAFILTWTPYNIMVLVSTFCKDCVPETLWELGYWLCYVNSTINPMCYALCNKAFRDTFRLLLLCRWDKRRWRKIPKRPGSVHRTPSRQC
# Outline: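 Intracellular calcium flux was measured by fluorescence (485 nm excitation, 525 nm emission) at 37 °C after automated compound addition following baseline, with final DMSO ≤0.3%. CHO-K1 cells stably expressing human M1R were plated 20–24 h beforehand. Cells were dye-loaded with 2 µM Fluo-4 AM for 1 h in pH 7.4 HEPES/HBSS containing 2.5 mM probenecid.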
# [4] = Agonist mode, individual replicates (Supplementary Figure 4)
# [5] = Supplementary Table 2, mean ± SEM
# [6] = log [Compound] M = -4.5, individual replicate columns
# [7] = log [Compound] M = -5.0, individual replicate columns
# [8] = log [Compound] M = -5.5, individual replicate columns
# [9] = log [Compound] M = -6.0, individual replicate columns
# [10] = log [Compound] M = -6.5, individual replicate columns
# [11] = log [Compound] M = -7.0, individual replicate columns
# [12] = log [Compound] M = -7.5, individual replicate columns
# [13] = log [Compound] M = -8.0, individual replicate columns
# [14] = log [Compound] M = -8.5, individual replicate columns
# [15] = log [Compound] M = -9.0, individual replicate columns
# [16] = individual replicates (Supplementary Figure 4)
# [17] = individual replicates (Supplementary Figure 5)
"Emax [1, 5] [%]",Compound,"Ca2+ signal (% of Cmp 1a) [1, 4]","Ca2+ signal (% of Cmp 1a) [1, 6]","Ca2+ signal (% of Cmp 1a) [1, 7]","Ca2+ signal (% of Cmp 1a) [1, 8]","Ca2+ signal (% of Cmp 1a) [1, 9]","Ca2+ signal (% of Cmp 1a) [1, 10]","Ca2+ signal (% of Cmp 1a) [1, 11]","Ca2+ signal (% of Cmp 1a) [1, 12]","Ca2+ signal (% of Cmp 1a) [1, 13]","Ca2+ signal (% of Cmp 1a) [1, 14]","Ca2+ signal (% of Cmp 1a) [1, 15]","Ca2+ signal (% of Cmp 1a) [2, 16]","Ca2+ signal (% of Carbachol) [3, 17]",further results
114 ± 6,"Cc1cc(-c2nc(CC(=O)NC(C)c3ccccc3)no2)cs1 (centres unmarked) [Compound 1.4, CC(C1=CC=CC=C1)NC(CC2=NOC(C3=CSC(C)=C3)=N2)=O]",100 % of Cmp 1a and 61 % of Cmp 1a and 92 % of Cmp 1a,106 % of Cmp 1a and 107 % of Cmp 1a and 115 % of Cmp 1a and 110 % of Cmp 1a,109 % of Cmp 1a and 91 % of Cmp 1a and 131 % of Cmp 1a and 113 % of Cmp 1a,103 % of Cmp 1a and 82 % of Cmp 1a and 119 % of Cmp 1a and 123 % of Cmp 1a,107 % of Cmp 1a and 79 % of Cmp 1a and 97 % of Cmp 1a and 127 % of Cmp 1a,81 % of Cmp 1a and 66 % of Cmp 1a and 80 % of Cmp 1a and 103 % of Cmp 1a,48 % of Cmp 1a and 47 % of Cmp 1a and 54 % of Cmp 1a and 90 % of Cmp 1a,24 % of Cmp 1a and 22 % of Cmp 1a and 35 % of Cmp 1a and 47 % of Cmp 1a,5.33 % of Cmp 1a and 2.67 % of Cmp 1a and 18 % of Cmp 1a and 26 % of Cmp 1a,2.67 % of Cmp 1a (2×) and 7 % of Cmp 1a (2×),6 % of Cmp 1a and 1.67 % of Cmp 1a and 13 % of Cmp 1a and 4.33 % of Cmp 1a,-0.333 % of Cmp 1a and -4 % of Cmp 1a and -17 % of Cmp 1a,-1 % of Carbachol and 20 % of Carbachol and -5 % of Carbachol,"EC50 ([1]; Supplementary Table 2, mean ± SEM, read-out: pEC50 Ca2+ (converted)): 100 nM"
,"O=C(NCc1ccc(Cl)o1)N1CCCc2ccccc2C1 [Compound 7, ClC1=CC=C(CNC(=O)N2CCCC=3C=CC=CC3C2)O1]",,,,,,,,,,,,,,"Ca2+ signal (% of Cmp 1a) ([1]; 0.1 µM, individual replicates (Supplementary Figure 3)): 16.2 % of Cmp 1a and 6.0 % of Cmp 1a; Ca2+ signal (% of Cmp 1a) ([1]; 1 µM, individual replicates (Supplementary Figure 3)): 2.4 % of Cmp 1a and 4.1 % of Cmp 1a; Ca2+ signal (% of Cmp 1a) ([1]; 10 µM, individual replicates (Supplementary Figure 3)): 22.7 % of Cmp 1a and 24.5 % of Cmp 1a; activation of GPR139 at three concentrations ([1]; 0.1, 1 and 10 µM, activity too low to reliably determine EC50): concentration-dependent activation of GPR139; Ca2+ signal (% of Cmp 1a) ([1]; Agonist mode, individual replicates (Supplementary Figure 1)): 44 % of Cmp 1a and 39 % of Cmp 1a and 33 % of Cmp 1a; Ca2+ signal (% of Cmp 1a) ([1]; primary screen, 10 µM compound, agonist mode, three columns = independent experiments): 44 % of Cmp 1a and 39 % of Cmp 1a and 33 % of Cmp 1a; Ca2+ signal (% of Cmp 1a) ([2]; individual replicates (Supplementary Figure 1)): 37.7665 % of Cmp 1a and 52.8581 % of Cmp 1a and 40.8806 % of Cmp 1a; Ca2+ signal (% of Carbachol) ([3]; individual replicates (Supplementary Figure 2)): -10 % of Carbachol and -18 % of Carbachol"
72 ± 5,"COc1ccc(-c2nc(CC(=O)NC(C)c3ccccc3)no2)cc1 (centres unmarked) [Compound 1.18, COC1=CC=C(C2=NC(CC(NC(C3=CC=CC=C3)C)=O)=NO2)C=C1]",43 % of Cmp 1a and 66 % of Cmp 1a and 77 % of Cmp 1a,87 % of Cmp 1a and 72 % of Cmp 1a and 75 % of Cmp 1a,75 % of Cmp 1a and 67 % of Cmp 1a and 70 % of Cmp 1a,73 % of Cmp 1a and 53 % of Cmp 1a and 59 % of Cmp 1a,61 % of Cmp 1a and 23 % of Cmp 1a and 42 % of Cmp 1a,30 % of Cmp 1a and 3.38 % of Cmp 1a and 24 % of Cmp 1a,7 % of Cmp 1a and 9 % of Cmp 1a and 8 % of Cmp 1a,6 % of Cmp 1a and 11 % of Cmp 1a and 5.71 % of Cmp 1a,-0.63 % of Cmp 1a and 3 % of Cmp 1a and 8 % of Cmp 1a,3.39 % of Cmp 1a and 6.59 % of Cmp 1a and 3.49 % of Cmp 1a,0.103 % of Cmp 1a and 9 % of Cmp 1a and 2.64 % of Cmp 1a,26 % of Cmp 1a and 19 % of Cmp 1a and 8 % of Cmp 1a,2 % of Carbachol and 2.18 % of Carbachol and -0.905 % of Carbachol,"EC50 ([1]; GPR139-CHOk1, read-out: EC50, Ca2+ mobilization): 1000 nM"
